Test results: publication PMC8296573, “Synthesis and Biological Evaluation of Fingolimod Derivatives as Antibacterial Agents” (ACS Omega, 2021)
In brackets after ≈: the same amount, converted by molar mass. Like-named read-outs stand apart in the source and are kept apart here.

Columns and labels:
S. aureus ATCC 12598 = test: Antibacterial activity, pre-exposure; format: cell-based, Staphylococcus aureus; details: for Average inhibition %, biofilms biomass / Average inhibition %, biofilms viability / Average inhibition %, planktonic cells turbidity / Average inhibition %, planktonic cells viability / inhibition at 5 µM / inhibition at 10 µM / inhibition at 15 µM / inhibition at 25 µM: S. aureus ATCC 12598, pre-exposure, ± SD; for inhibition at 5 µM / inhibition at 10 µM / inhibition at 15 µM / inhibition at 25 µM / MIC: Staphylococcus aureus, ATCC12598
Summary of the method: (§1)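 Compounds are diluted in DMSO and plated, then bacteria are added to test prevention of growth and biofilm formation. After 18 h at 37 °C with shaking, planktonic OD and resazurin fluorescence are measured. Washed biofilms receive resazurin (30 min S. aureus, 60 min A. baumannii, 90 min P. aeruginosa, 37 °C), then crystal violet.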

S. aureus P2 = test: Antibacterial activity, pre-exposure; format: cell-based, Staphylococcus aureus; details: for Average inhibition %, biofilms biomass / Average inhibition %, biofilms viability / Average inhibition %, planktonic cells turbidity / Average inhibition %, planktonic cells viability / inhibition at 5 µM / inhibition at 10 µM / inhibition at 15 µM / inhibition at 25 µM: S. aureus P2, pre-exposure, ± SD; for MIC / inhibition at 5 µM / inhibition at 10 µM / inhibition at 15 µM / inhibition at 25 µM: Staphylococcus aureus; for MIC: P2
Summary of the method: as §1

[1] = Colloidal aggregation by nephelometry; format: physicochemical; details: 25 µM
Protocol: 3. Aggregation data (Figure S3)
Potential colloidal aggregation in biological assays was studied at five concentrations (5 µM, 10 µM, 15 µM,
25 µM, 50 µM). The original assay conditions were simulated, and the light scattering of potential aggregates
in the mixture was studied by nephelometric methods using Nepheloskan Ascent (Labsystems, Finland).
Aggregation of the blank and compounds fingolimod, 43, 45, 55, 62, 79 and 82 were measured as triplicates
from one independent experiment at 400 V and at room temperature.
formation at 50 µM. […] However, at 15
µM, 10 µM and 5 µM, the obtained values were close to those observed by blank, therefore indicating only
minor or no detectable aggregation.
Figure S3: Aggregation data for fingolimod and compounds 43, 45, 55, 62, 79, 82. RNU = relative nephelometric unit.
The data are shown as the mean ± SD and normalized to the blank.
(1 picture or pasted object on this page, not shown here)

[2] = Cytotoxicity, resazurin staining assay; format: cell-based, human; details: human, 24 h incubation
Protocol: The cytotoxicity of the compounds was assessed on the three different human cell lines, A549, HEp-2, and HL-60, using the redox-based resazurin staining assay. The cells were seeded in clear 96-well plates at a density of 1 × 10^4 cells per well in a volume of 200 μL per well. The adherent cells were let to attach for 24 h before changing the media and adding the compounds (final concentration of 0.25% DMSO). HL-60 were counted and added to the plates at a density of 1 × 10^4 cells per well in a volume of 200 μL directly with the compounds. Untreated cells were used as negative controls, and cells treated with 1% TritonX-100 (Sigma-Aldrich, St. Louis, MO) were used as positive controls for cytotoxicity. The cells were incubated with the compounds for 24 h.
For the resazurin assay, the media was first removed, and the adherent cells were washed once with PBS. Then, 200 μL of 20 μM resazurin was added per well and cells were incubated for two more hours before the measurement of fluorescence, as mentioned earlier. For HL-60, 10 μL of 400 μM resazurin was added directly to the wells and the cells were incubated for an additional 4 h before the measurement of fluorescence.

[3] = 5 µM, read-out: Average inhibition %, biofilms biomass
[4] = 5 µM, read-out: Average inhibition %, planktonic cells turbidity
[5] = 10 µM, read-out: Average inhibition %, biofilms biomass
[6] = 10 µM, read-out: Average inhibition %, planktonic cells turbidity
[7] = 15 µM, read-out: Average inhibition %, biofilms biomass
[8] = 15 µM, read-out: Average inhibition %, planktonic cells turbidity
[9] = 25 µM, read-out: Average inhibition %, biofilms biomass
[10] = 25 µM, read-out: Average inhibition %, planktonic cells turbidity
[11] = pre-exposure, 18 h, read-out: MIC S. aureus ATCC 12598

Compound	Average inhibition %, biofilms viability (S. aureus ATCC 12598; 5 µM) [%]	Average inhibition %, planktonic cells viability (S. aureus ATCC 12598; 5 µM) [%]	Average inhibition %, biofilms viability (S. aureus ATCC 12598; 10 µM) [%]	Average inhibition %, planktonic cells viability (S. aureus ATCC 12598; 10 µM) [%]	Average inhibition %, biofilms viability (S. aureus ATCC 12598; 15 µM) [%]	Average inhibition %, planktonic cells viability (S. aureus ATCC 12598; 15 µM) [%]	Average inhibition %, biofilms viability (S. aureus ATCC 12598; 25 µM) [%]	Average inhibition %, planktonic cells viability (S. aureus ATCC 12598; 25 µM) [%]	Average inhibition %, biofilms viability (S. aureus P2; 5 µM) [%]	Average inhibition %, planktonic cells viability (S. aureus P2; 5 µM) [%]	Average inhibition %, biofilms viability (S. aureus P2; 10 µM) [%]	Average inhibition %, planktonic cells viability (S. aureus P2; 10 µM) [%]	Average inhibition %, biofilms viability (S. aureus P2; 15 µM) [%]	Average inhibition %, planktonic cells viability (S. aureus P2; 15 µM) [%]	Average inhibition %, biofilms viability (S. aureus P2; 25 µM) [%]	Average inhibition %, planktonic cells viability (S. aureus P2; 25 µM) [%]	Aggregation (nephelometry) [1]	CC50 at 24 h ([2]; A549 cells) [µM]	CC50 at 24 h ([2]; HEp-2 cells) [µM]	CC50 at 24 h ([2]; HL-60 cells) [µM]	other results
2-Amino-2-(4-decylbenzyl)propane-1,3-diol [Compound 45]	83.6 ± 38.2	83.4 ± 39.6	99.6 ± 0.1	99.8 ± 0	99.6 ± 0.1	99.8 ± 0	99.6 ± 0.1	99.8 ± 0.1	69.6 ± 37.8	70 ± 36.1	99.6 ± 0	99.8 ± 0	99.6 ± 0	99.7 ± 0.1	99.6 ± 0	99.6 ± 0.1	potential aggregation				Average inhibition %, biofilms biomass (S. aureus ATCC 12598; 5 µM): 75.4 ± 28.1%; Average inhibition %, planktonic cells turbidity (S. aureus ATCC 12598; 5 µM): 89.3 ± 24.1%; Average inhibition %, biofilms biomass (S. aureus ATCC 12598; 10 µM): 95.3 ± 0.4%; Average inhibition %, planktonic cells turbidity (S. aureus ATCC 12598; 10 µM): 99.4 ± 0%; Average inhibition %, biofilms biomass (S. aureus ATCC 12598; 15 µM): 94.4 ± 0.3%; Average inhibition %, planktonic cells turbidity (S. aureus ATCC 12598; 15 µM): 99.1 ± 0%; Average inhibition %, biofilms biomass (S. aureus ATCC 12598; 25 µM): 94.9 ± 1%; Average inhibition %, planktonic cells turbidity (S. aureus ATCC 12598; 25 µM): 98.3 ± 0.2%; MIC S. aureus ATCC 12598 (S. aureus ATCC 12598; pre-exposure, 18 h): 5 to 10 µM; Average inhibition %, biofilms biomass (S. aureus P2; 5 µM): 74.6 ± 24.7%; Average inhibition %, planktonic cells turbidity (S. aureus P2; 5 µM): 74.4 ± 34.2%; Average inhibition %, biofilms biomass (S. aureus P2; 10 µM): 97.6 ± 0.3%; Average inhibition %, planktonic cells turbidity (S. aureus P2; 10 µM): 99.4 ± 0.1%; Average inhibition %, biofilms biomass (S. aureus P2; 15 µM): 96.9 ± 1.4%; Average inhibition %, planktonic cells turbidity (S. aureus P2; 15 µM): 99.1 ± 0.1%; Average inhibition %, biofilms biomass (S. aureus P2; 25 µM): 97.6 ± 0.3%; Average inhibition %, planktonic cells turbidity (S. aureus P2; 25 µM): 98.6 ± 0.1%; MIC S. aureus P2 (S. aureus P2; pre-exposure, 18 h): 5 to 10 µM
CCCCCCCCc1cccc(CCC(N)(CO)CO)c1 [Compound 43, 2-Amino-2-(3-octylphenethyl)propane-1,3-diol]																	potential aggregation	> 40	> 40	23.4 ± 3.2	
CCCCCCCCc1ccc2cc(CC(N)(CO)CO)ccc2c1 [Compound 79, 2-Amino-2-[(6-octylnaphthalen-2-yl)methyl]propane-1,3-diol]	65.9 ± 50.1	69.3 ± 47.1	99.6 ± 0.1	99.8 ± 0.1	99.5 ± 0	99.6 ± 0.1	99.5 ± 0.1	99.6 ± 0.1	49.4 ± 34.5	45.3 ± 32.9	99.4 ± 0	99.6 ± 0	99.4 ± 0	99.6 ± 0.1	99.5 ± 0	99.6 ± 0.1	potential aggregation	> 40	> 40	26.9 ± 1.6	inhibition at 5 µM (S. aureus ATCC 12598; [3]): 63.5 ± 41.5%; inhibition at 5 µM (S. aureus ATCC 12598; [4]): 82.3 ± 26.8%; inhibition at 10 µM (S. aureus ATCC 12598; [5]): 94.7 ± 0.2%; inhibition at 10 µM (S. aureus ATCC 12598; [6]): 99.6%; inhibition at 15 µM (S. aureus ATCC 12598; [7]): 94.6 ± 0.6%; inhibition at 15 µM (S. aureus ATCC 12598; [8]): 99.4 ± 0.1%; inhibition at 25 µM (S. aureus ATCC 12598; [9]): 95 ± 1%; inhibition at 25 µM (S. aureus ATCC 12598; [10]): 99.2 ± 0.3%; MIC (S. aureus ATCC 12598; S. aureus ATCC 12598 and P2, read-out: MIC against the clinical strains of S. aureus): 5 to 10 µM (≈ 1.72 to 3.44 µg/mL); MIC (S. aureus ATCC 12598; [11]): 5 to 10 µM (≈ 1.72 to 3.44 µg/mL); MIC (S. aureus P2; pre-exposure, 18 h): 10 µM (≈ 3.44 µg/mL); inhibition at 5 µM (S. aureus P2; [3]): 63.6 ± 23.6%; inhibition at 5 µM (S. aureus P2; [4]): 45.4 ± 35.4%; inhibition at 10 µM (S. aureus P2; [5]): 95.8 ± 2.2%; inhibition at 10 µM (S. aureus P2; [6]): 99.5%; inhibition at 15 µM (S. aureus P2; [7]): 97.3 ± 0.5%; inhibition at 15 µM (S. aureus P2; [8]): 99.4 ± 0.1%; inhibition at 25 µM (S. aureus P2; [9]): 96.4 ± 1.3%; inhibition at 25 µM (S. aureus P2; [10]): 99.1 ± 0.2%
CCCCCCCCc1ccc(CCC(N)(CO)CO)cc1 [fingolimod, Fingolimod]	16.9 ± 2.9	2.9 ± 2.9	35.8 ± 17.9	34 ± 29.5	99.2 ± 0.5	99.7 ± 0	99.6 ± 0.3	99.7 ± 0	18.2 ± 17	4.3 ± 7.4	55.4 ± 38	45 ± 45.6	99.8 ± 0	99.8 ± 0	99.8 ± 0.1	99.7 ± 0	potential aggregation	> 40	> 40	36.1 ± 13.4	inhibition at 5 µM (S. aureus ATCC 12598; [3]): 18.5 ± 17.7%; inhibition at 5 µM (S. aureus ATCC 12598; [4]): 6.3 ± 8.7%; inhibition at 10 µM (S. aureus ATCC 12598; [5]): 43.2 ± 15.8%; inhibition at 10 µM (S. aureus ATCC 12598; [6]): 21.5 ± 27.1%; inhibition at 15 µM (S. aureus ATCC 12598; [7]): 94.5 ± 1.1%; inhibition at 15 µM (S. aureus ATCC 12598; [8]): 99.6 ± 0.1%; inhibition at 25 µM (S. aureus ATCC 12598; [9]): 95.2 ± 0.4%; inhibition at 25 µM (S. aureus ATCC 12598; [10]): 99.2 ± 0.1%; MIC (S. aureus ATCC 12598; [11]): 15 µM (≈ 4.61 µg/mL); MIC (S. aureus P2; pre-exposure, 18 h): 15 µM (≈ 4.61 µg/mL); inhibition at 5 µM (S. aureus P2; [3]): 34.9 ± 19%; inhibition at 5 µM (S. aureus P2; [4]): 3.3 ± 5.8%; inhibition at 10 µM (S. aureus P2; [5]): 64.3 ± 29.1%; inhibition at 10 µM (S. aureus P2; [6]): 39.5 ± 45.1%; inhibition at 15 µM (S. aureus P2; [7]): 98.3 ± 0.1%; inhibition at 15 µM (S. aureus P2; [8]): 99.6%; inhibition at 25 µM (S. aureus P2; [9]): 98 ± 0.4%; inhibition at 25 µM (S. aureus P2; [10]): 99.3 ± 0.1%
